Data on one molecule can be found in publication PMC6934184, “Selective DNA-PKcs inhibition extends the therapeutic index of localized radiotherapy and chemotherapy” (The Journal of Clinical Investigation, 2019).

Structures are written as SMILES.

In this assay the target is T1, STK16 (PKL12) (Homo sapiens, UniProt O75716).
T1 construct: purchased Thermo Fisher Scientific (Life Technologies) SelectScreen
The experiment in a line: SelectScreen LanthaScreen. The assay is classed as binding. The following applies: read-out: % displacement. The method, boiled down: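 NU5455 was profiled across the SelectScreen Broad panel of kinase activity and binding assays. Z'LYTE reactions such as CSF1R ran at apparent Km ATP, while the Adapta CAMK1 assay used ATP listed as 10. Values are given as percent.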
(In general: TR-FRET usually uses a lanthanide donor and a delayed reading to cut background.)

T1 sequence (O75716 whole entry): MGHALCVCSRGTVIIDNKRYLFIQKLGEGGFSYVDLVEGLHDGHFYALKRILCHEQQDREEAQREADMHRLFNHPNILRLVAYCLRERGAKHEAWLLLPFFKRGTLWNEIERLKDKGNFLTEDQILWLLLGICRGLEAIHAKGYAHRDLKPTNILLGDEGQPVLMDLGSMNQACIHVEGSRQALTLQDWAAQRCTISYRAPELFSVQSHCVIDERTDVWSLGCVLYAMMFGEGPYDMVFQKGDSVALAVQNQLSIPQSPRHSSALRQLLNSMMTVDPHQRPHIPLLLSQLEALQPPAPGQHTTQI

In the case of `CN(C(=O)CN1CCOCC1)c1ccc2sc3c(-c4cccc5c(=O)cc(N6CC7CCC(C6)O7)oc45)cccc3c2c1` [NU5455], the inhibition at 1 µM was found to be 10.5%.
